This note sets out measurements from patent publication US10933063B2 (priority 2017, dated 2021).

In the test the target is BTK (Homo sapiens (Human), UniProt Q06187). Put plainly: biochemical.
Sequence of BTK (Q06187 whole entry, looked up, species assumed): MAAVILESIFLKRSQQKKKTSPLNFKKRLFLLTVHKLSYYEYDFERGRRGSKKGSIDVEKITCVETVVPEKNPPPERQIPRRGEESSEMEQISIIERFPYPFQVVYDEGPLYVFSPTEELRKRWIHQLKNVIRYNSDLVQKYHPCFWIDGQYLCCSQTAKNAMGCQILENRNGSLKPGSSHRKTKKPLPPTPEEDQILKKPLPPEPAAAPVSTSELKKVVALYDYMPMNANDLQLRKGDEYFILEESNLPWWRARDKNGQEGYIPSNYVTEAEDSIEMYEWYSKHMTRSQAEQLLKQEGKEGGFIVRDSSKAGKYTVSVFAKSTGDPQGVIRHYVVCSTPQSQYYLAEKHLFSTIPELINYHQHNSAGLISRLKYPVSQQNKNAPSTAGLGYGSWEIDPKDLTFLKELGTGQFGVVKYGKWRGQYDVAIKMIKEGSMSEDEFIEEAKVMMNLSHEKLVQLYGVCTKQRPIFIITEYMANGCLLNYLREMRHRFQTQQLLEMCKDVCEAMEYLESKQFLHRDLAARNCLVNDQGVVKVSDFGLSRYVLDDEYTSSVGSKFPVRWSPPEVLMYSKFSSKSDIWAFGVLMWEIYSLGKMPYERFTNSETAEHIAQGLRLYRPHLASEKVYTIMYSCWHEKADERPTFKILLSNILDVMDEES
With `CC#CC(=O)N1CCC[C@@H](c2nc(-c3ccc(Oc4cccc(OC)c4F)cc3)c3c(C)ncc(C)n23)C1` [Example 77, (R)-1-(3-(1-(4-(2-fluoro-3-methoxyphenoxy)phenyl)-5,8-dimethylimidazo[1,5-a]pyrazin-3-yl)piperidin-1-yl)but-2-yn-1-one], the half-inhibitory concentration (IC50) (usually the concentration that gives 50% inhibition) was 0.1 to 1 µM.

As for `C=CC(=O)N1CCCC[C@H]1c1nc(-c2ccc(Oc3cccc(OC)c3F)cc2)c2cncc(C)n12` [Example 78, (S)-1-(2-(1-(4-(2-fluoro-3-methoxyphenoxy)phenyl)-5-methylimidazo[1,5-a]pyrazin-3-yl)piperidin-1-yl)prop-2-en-1-one], the IC50 fell in the range of 0.01 to 0.1 µM.

In the case of `CC#CC(=O)N1CCCC[C@H]1c1nc(-c2ccc(Oc3cccc(OC)c3F)cc2)c2cncc(C)n12` [Example 79, (S)-1-(2-(1-(4-(2-fluoro-3-methoxyphenoxy)phenyl)-5-methylimidazo[1,5-a]pyrazin-3-yl)piperidin-1-yl)but-2-yn-1-one], the 50% inhibitory concentration (IC50) lay in the range of 0.1 to 1 µM.

In the case of `C=CC(=O)N1CCCC[C@H]1c1nc(-c2ccc(Oc3cccc(OC)c3F)cc2)c2c(C)ncc(C)n12` [Example 80, (S)-1-(2-(1-(4-(2-fluoro-3-methoxyphenoxy)phenyl)-5,8-dimethylimidazo[1,5-a]pyrazin-3-yl)piperidin-1-yl)prop-2-en-1-one], the IC50 was 0.01 to 0.1 µM.

`CC#CC(=O)N1CCCC[C@H]1c1nc(-c2ccc(Oc3cccc(OC)c3F)cc2)c2c(C)ncc(C)n12` [Example 81, (S)-1-(2-(1-(4-(2-fluoro-3-methoxyphenoxy)phenyl)-5,8-dimethylimidazo[1,5-a]pyrazin-3-yl)piperidin-1-yl)but-2-yn-1-one]: the IC50 lay in the range of 0.1 to 1 µM.

Consider `C=CC(=O)N1CCC[C@H]1c1nc(-c2ccc(Oc3cccc(OC)c3F)cc2)c2cnc(C)cn12` [Example 83, (S)-1-(2-(1-(4-(2-fluoro-3-methoxyphenoxy)phenyl)-6-methylimidazo[1,5-a]pyrazin-3-yl)pyrrolidin-1-yl)prop-2-en-1-one], for which the IC50 is 0.01 to 0.1 µM.

`COc1cccc(Oc2ccc(-c3nc([C@@H]4CCN(C(=O)/C(C#N)=C/C(C)(C)C)C4)n4ccnc(C)c34)cc2)c1F` [Example 88, (R,E)-2-(3-(1-(4-(2-fluoro-3-methoxyphenoxy)phenyl)-8-methylimidazo[1,5-a]pyrazin-3-yl)pyrrolidine-1-carbonyl)-4,4-dimethylpent-2-enenitrile]: the IC50 lay in the range of 0.01 to 0.1 µM.

As for `CC#CC(=O)N1CC[C@@H](c2nc(-c3ccc(Oc4cccc(OC)c4F)cc3)c3cncc(OCCN(C)C)n23)C1` [Example 90, (R)-1-(3-(5-(2-(dimethylamino)ethoxy)-1-(4-(2-fluoro-3-methoxyphenoxy)phenyl)imidazo[1,5-a]pyrazin-3-yl)pyrrolidin-1-yl)but-2-yn-1-one], the IC50 was 0.01 to 0.1 µM.

`CC#CC(=O)N1CC[C@@H](c2nc(-c3ccc(Oc4cccc(OC)c4F)cc3)c3cncc(OC4CCOC4)n23)C1` (stereo partly drawn) [Example 99, 1-((3R)-3-(1-(4-(2-fluoro-3-methoxyphenoxy)phenyl)-5-((tetrahydrofuran-3-yl)oxy)imidazo[1,5-a]pyrazin-3-yl)pyrrolidin-1-yl)but-2-yn-1-one]: the half-maximal inhibitory concentration (IC50) lay within 0.01 to 0.1 µM.

On to `CC#CC(=O)N1CC[C@@H](c2nc(-c3ccc(Oc4cccc(OC)c4F)cc3)c3cncc(OC4CCC4)n23)C1` [Example 101, (R)-1-(3-(5-cyclobutoxy-1-(4-(2-fluoro-3-methoxyphenoxy)phenyl)imidazo[1,5-a]pyrazin-3-yl)pyrrolidin-1-yl)but-2-yn-1-one], for which the IC50 was in the range of 0.01 to 0.1 µM.

In turn, `CC#CC(=O)N1CC[C@@H](c2nc(-c3ccc(Oc4cccc(OC)c4F)cc3)c3cncc(OCCOC)n23)C1` [Example 103, (R)-1-(3-(1-(4-(2-fluoro-3-methoxyphenoxy)phenyl)-5-(2-methoxyethoxy)imidazo[1,5-a]pyrazin-3-yl)pyrrolidin-1-yl)but-2-yn-1-one] showed an IC50 of 0.01 to 0.1 µM.

For the molecule `CC#CC(=O)N1CC[C@@H](c2nc(-c3ccc(Oc4cccc(OC)c4F)cc3)c3c(CC)nccn23)C1` [Example 107, (R)-1-(3-(8-ethyl-1-(4-(2-fluoro-3-methoxyphenoxy)phenyl)imidazo[1,5-a]pyrazin-3-yl)pyrrolidin-1-yl)but-2-yn-1-one], the IC50 lay within 0.01 to 0.1 µM.

Molecule `C=CC(=O)N1CC[C@@H](c2nc(-c3ccc(Oc4cccc(OC)c4F)cc3)c3c(CCC)nccn23)C1` [Example 109, (R)-1-(3-(1-(4-(2-fluoro-3-methoxyphenoxy)phenyl)-8-propylimidazo[1,5-a]pyrazin-3-yl)pyrrolidin-1-yl)prop-2-en-1-one] had a half-maximal inhibitory concentration (IC50) of 0.1 to 1 µM.

As to `CC#CC(=O)N1CC[C@@H](c2nc(-c3ccc(Oc4cccc(OC)c4F)cc3)c3c(CCC)nccn23)C1` [Example 110, (R)-1-(3-(1-(4-(2-fluoro-3-methoxyphenoxy)phenyl)-8-propylimidazo[1,5-a]pyrazin-3-yl)pyrrolidin-1-yl)but-2-yn-1-one], the IC50 was in the range of 1 to 10 µM.

Turning to `C=CC(=O)N1CC[C@@H](c2nc(-c3ccc(Oc4cccc(OC)c4F)cc3)c3c(C(C)C)nccn23)C1` [Example 111, (R)-1-(3-(1-(4-(2-fluoro-3-methoxyphenoxy)phenyl)-8-isopropylimidazo[1,5-a]pyrazin-3-yl)pyrrolidin-1-yl)prop-2-en-1-one], the IC50 was 1 to 10 µM.

Turning to `C=CC(=O)N1CC[C@@H](c2nc(-c3ccc(Oc4cccc(OC)c4F)cc3)c3c(O)nccn23)C1` [Example 113, (R)-1-(3-(1-(4-(2-fluoro-3-methoxyphenoxy)phenyl)-8-hydroxyimidazo[1,5-a]pyrazin-3-yl)pyrrolidin-1-yl)prop-2-en-1-one], the IC50 fell in the range of 0.1 to 1 µM.

`C=CC(=O)N1CC[C@@H](c2nc(-c3ccc(Oc4cccc(OC)c4F)cc3)c3cncc(OC(C)C)n23)C1` [Example 114, (R)-1-(3-(1-(4-(2-fluoro-3-methoxyphenoxy)phenyl)-5-isopropoxyimidazo[1,5-a]pyrazin-3-yl)pyrrolidin-1-yl)prop-2-en-1-one] registered an IC50 of 0.01 to 0.1 µM.

As to `CC#CC(=O)N1CC[C@@H](c2nc(-c3ccc(Oc4cccc(OC)c4F)cc3)c3cncc(OC(C)C)n23)C1` [Example 115, (R)-1-(3-(1-(4-(2-fluoro-3-methoxyphenoxy)phenyl)-5-isopropoxyimidazo[1,5-a]pyrazin-3-yl)pyrrolidin-1-yl)but-2-yn-1-one], the concentration for half-maximal inhibition (IC50) fell in the range of 0.1 to 1 µM.

For the molecule `CC#CC(=O)N1CC[C@@H](c2nc(-c3ccc(Oc4cccc(OC)c4F)cc3)c3c(COC(C)=O)nccn23)C1` [Example 118, (R)-(3-(1-(but-2-ynoyl)pyrrolidin-3-yl)-1-(4-(2-fluoro-3-methoxyphenoxy)phenyl)imidazo[1,5-a]pyrazin-8-yl)methyl acetate], the IC50 lay in the range of 0.1 to 1 µM.

`CC#CC(=O)N1CC[C@@H](c2nc(-c3ccc(Oc4cccc(OC)c4F)cc3)c3c(CO)nccn23)C1` [Example 119, (R)-1-(3-(1-(4-(2-fluoro-3-methoxyphenoxy)phenyl)-8-(hydroxymethyl)imidazo[1,5-a]pyrazin-3-yl)pyrrolidin-1-yl)but-2-yn-1-one] returned an IC50 of 0.01 to 0.1 µM.

For the molecule `CC#CC(=O)N1CC[C@@H](c2nc(-c3ccc(Oc4cccc(OC)c4F)cc3)c3c(CF)nccn23)C1` [Example 120, (R)-1-(3-(1-(4-(2-fluoro-3-methoxyphenoxy)phenyl)-8-(fluoromethyl)imidazo[1,5-a]pyrazin-3-yl)pyrrolidin-1-yl)but-2-yn-1-one], the IC50 lay in the range of 0.01 to 0.1 µM.
